Test results published in patent publication US9180163B2, “Parstatin peptides” (priority 2009, dated 2015).
Ends that are not written are not given here.

Key:
HUVEC cells = test: [3H]-thymidine incorporation (DNA synthesis); format: cell-based, human; settings: 10 μM, bFGF 5 ng/ml
Description: The ability of parstatin (1-41) to inhibit DNA synthesis of endothelial cells was assessed in thymidine incorporation assays. HUVEC cells were grown until 60-80% confluent in 24-well plates. Cells were treated with indicated peptides in serum-free medium containing either 0.5% BSA, or VEGF, or bFGF, or medium containing 5% FBS, or epidermal growth factor (EGF), or heparin-binging EGF (HB-EGF) for 18 hours. All cells were pulsed with 0.5 μCi/ml [3H]-thymidine (ICN Biomedicals Inc., Irvine Calif.) for additional 6 h. Radioactivity incorporated into DNA was determined in liquid scintillation counter.

[1] = test system: Erk1/2 (p42/44 MAPK) in HUVEC cells; test: Erk1/2 phosphorylation immunoblot (MAP kinase pathway); format: cell-based, human; settings: pretreatment 1 h, 10 μM; stimulated by FBS, bFGF or VEGF
Description: The MAPK (Erk1/2, p42/44) cascade mediates mitogenesis. […] HUVEC cells were cultured in 35 mm tissue culture dishes. After reaching 80% confluency, cells were growth factor-starved and subsequently stimulated for 10 min with vehicle or indicated agents. In combination experiments, cells were pretreated with parstatin or other peptides for 10 to 60 min.
Attached cells were lysed with Laenmli sample buffer, resolved in 10% SDS-PAGE, and transferred to nitrocellulose membranes. Membranes were incubated with primary antibodies against phospho p42/44 mitogen-activated protein kinases (p-Erk1/2, New England Biolabs, UK) and p42/44 Erk1/2 (t-Erk1/2, New England Biolabs, UK). Membranes were then probed with secondary antibodies horseradish peroxidase-conjugated, and proteins were visualized by chemiluminescent detection.

[2] = test system: choroidal neovascularization in C57BL/6J mice; format: in vivo; settings: mouse, in vivo
Description: Parstatin (1-41), hydrophobic parstatin (1-26) fragment and hydrophilic parstatin (24-41) fragment were used in an in vivo mouse model of choroidal neovascularization. In particular, laser photocoagulation-induced rupture of Bruch's membrane was used to generate choroidal neovascularization as a preclinical disease model for age-related macular degeneration. Pathogen-free C57BL/6J (4-5 week-old) mice were treated in accordance with the Association for Research in Vision and Ophthalmology Statement for the Use of Animals in Ophthalmic and Vision Research and the guidelines of the Animal Care and Use Committee at local University Medical School.
C57BL/6J (4-5 week-old) mice were anesthetized with ketamine hydrochloride (100 mg/kg body weight) and xylazine-(4 mg/Kg body weight) and the pupils were dilated with 1% tropicamide. Laser photocoagulation (75 μm spot size, 0.1 sec duration, 120 mW) was performed in the 9, 12, and 3 o'clock positions of the posterior pole of the retina with the slit lamp delivery system of an Oculight GL diode laser (Index, Mountain View, Calif.) and a handheld cover slip as a contact lens to view the retina. Production of a bubble at the time of laser, which indicates rupture of Bruch's membrane, is an important factor in obtaining CNV. Therefore, only burns in which a bubble was produced were included in the study. Two weeks after rupture of Bruch's membrane, anesthetized mice were perfused with 50 mg/ml fluorescein-labelled-dextran (2×10^6 average molecular weight, Sigma-Aldrich, St. Louis, Mo.). The eyes were then dissected and fixed in 10% Formalin for 3 hours and choroidal flat mounts were examined by fluorescence microscopy. Image-Pro Plus software (Media Cybernetics, Silver Spring, Md.) was used to measure the total area of CNV at each rupture site by personnel blinded as to study treatments and groups.
Intraocular injections of parstatin peptides were performed with a Harvard pump microinjection apparatus and pulled glass micropipets. […] Choroidal neovascularization was assessed 14 days after laser treatment.

[3] = test system: retinal neovascularization in C57BL/6 mice; format: in vivo; settings: mouse, in vivo
From the text: Parstatin (1-41), hydrophobic parstatin (1-26) fragment and hydrophilic parstatin (24-41) fragment were used in an in vivo mouse model of retinal neovascularization. In particular, oxygen-induced retinopathy was used to generate retinal neovascularization as a preclinical disease model for retinopathy of prematurity and other retinal neovascular diseases such as diabetic retinopathy. In this model, exposing newborn mice to hyperoxia prompts regression or delay of retinal vascular development, followed by abnormal angiogenesis after their return to normal oxygen levels. Mainly, this model mirrors the events that occur during retinopathy of prematurity, when infants are removed from oxygen-rich incubators, a condition involving pathological neovascularization that can affect premature infants and result in permanent visual loss. In recent years, the use of this model has been extended to the general study of ischemic vasculopathies, such us diabetic retinopathy, and related antiangiogenic interventions, and it is now used extensively in both basic and applied research environments.
Pathogen-free C57BL/6 mice were treated in accordance with the Association for Research in Vision and Ophthalmology Statement for the Use of Animals in Ophthalmic and Vision Research and the guidelines of the Animal Care and Use Committee at local University Medical School. Litters of 7-day old (P7) mice were exposed to an atmosphere of 75% oxygen in an airtight incubator for 5 days (P12), after which they were returned to room air for 5 days (P17). For quantification of oxygen-induced retinal neovascularization, mice on P17 were given an intraocular injection of 1 μl of rat anti-mouse platelet endothelial cell adhesion molecule-1 (PECAM-1) antibody (Pharmingen, San Jose, Calif.) under a dissecting microscope with Harvard pump microinjection apparatus. Mice were euthanized 12 hours after injection and eyes were fixed in PBS-buffered formalin for 5 hours. […] Retinal flat mounts were prepared and assessed with fluorescence microscope using imaging software. […]

isolated rat hearts = test: isolated rat heart ischemia-reperfusion; settings: for infarct size / LVDP, inhibitor alone: without parstatin (1-41), L-NMA 100 μM, ODQ 10 μM
Description: For in vitro studies, excised hearts were retrogradely perfused through the aorta with a modified Krebs buffer. Coronary flow rate was determined by timed collection of the coronary effluent. A saline-filled latex balloon connected to a pressure transducer was inserted into the left […] (LV), and baseline end-diastolic pressure was set at 5-10 mmHg. Heart rate, LV end-diastolic pressure and LV developed pressures (LVDP) were recorded continuously. The measurements for post-ischemic recovery of LVDP used for comparison were taken at 180 min of reperfusion. After stabilization for 15-20 min, the hearts (n=6/group) were subjected to 30 min of regional ischemia, followed by 180 min of reperfusion. Different concentrations of […] (1-41) were perfused 15 min prior to coronary occlusion until occlusion. Control hearts produced an infarct size of 51±3% of the area at risk (FIG. 19A). […] A picture representation of infarct in control versus […] Similarly, […] (1-41) increased recovery of LVDP in a concentration-dependent manner (FIG. 19B). Again, the optimal concentration was 1 μM which produced a 23% recovery of LVDP (FIG. 19B).

[4] = test system: myocardial ischemia-reperfusion injury in Sprague Dawley rats; settings: for infarct size, inhibitor alone: without parstatin (1-26), L-NMA 15 μg/Kg, ODQ 1 mg/kg, glibenclamide 3 mg/kg, atractyloside 3 mg/Kg
Description: Parstatin (1-41) was used in an in vivo rat model of cardiac ischemia and reperfusion, and in an in vitro isolated rat heart model of ischemia-reperfusion injury.
For in vivo infarct size studies, rats were anesthetized with pentobarbital sodium (50 mg/Kg) and heparin (1000 IU/Kg) and underwent 30 min of regional ischemia followed by 120 min of reperfusion. Parstatin (1-41) was administered-intravenously over 1 min starting 15 min prior to ischemia, or 15 min after the onset of ischemia, or 10 seconds after the onset of reperfusion in separate series of experiments (n=6/group).
To induce ischemia, ligature was positioned around the left main coronary artery and threaded through a plastic snare to permit reversible occlusion of the coronary artery. Coronary occlusion was induced by clamping the snare onto the heart and reperfusion was achieved by releasing the snare. At the end of reperfusion, the coronary artery was re-occluded and the risk zone was delineated by perfusion of 0.5% Evans' blue into the aortic cannula. Hearts were sectioned and incubated in 1% triphenyltetrazolium chloride in phosphate buffer for 15 min to define white necrotic tissue when fixed in 10% formalin for 24 h. Area at risk (AAR) and infarct-to-risk rations were determined by computerized planimetry using J-Image v.i.6 software (NIH, Bethesda, Mass.).
For in vivo infarct size/ischemia-reperfusion studies, rats were anesthetized with pentobarbital sodium (50 mg/Kg) and heparin (1000 IU/Kg) and underwent 30 min of regional ischemia followed by 120 min of reperfusion. Human hydrophobic parstatin (1-26) fragment was administered intravenously over 1 min at one of three time points: 1) starting 15 min prior to ischemia, 2) 15 min after the onset of ischemia, or 3) 10 seconds after the onset of reperfusion in a separate series of experiments (n=6/group).
Ischemia was induced by placement of a ligature around the left main coronary artery which was threaded through a plastic snare to permit reversible occlusion of the coronary artery. Coronary occlusion was induced by clamping the snare onto the heart and reperfusion was achieved by releasing the snare. At the end of reperfusion, the coronary artery was re-occluded and the risk zone was delineated by perfusion 0.5% Evans' blue into the aortic cannula.
Hearts were sectioned and incubated in 1% triphenyltetrazolium chloride in phosphate buffer for 15 min to define white necrotic tissue when fixed in 10% formalin for 24 h. Area at risk (AAR) and infarct-to-risk rations were determined by computerized planimetry using J-Image v.i.6 software (NIH, Bethesda, Mass.). The principal endpoint of these studies was infarct size expressed as a percentage of the area at risk.

| Molecule | infarct size, inhibitor alone [4] | infarct size / LVDP, inhibitor alone (isolated rat hearts) | further results |
| --- | --- | --- | --- |
| MGPRRLLLVAACFSLCGPLL-SARALTRSAPTPRDRANKETR (MGPRRLLLVAACFSLCGPLLSARALTRSAPTPRDRANKETR; Scrambled synthetic peptide) [modulated parstatin, human parstatin with amino acids 24 to 41 scrambled] |  |  | bFGF-induced DNA synthesis (HUVEC cells): inhibit; activation of Erk1/2 [1]: inhibit |
| MGPRRLLLVAACFSLCGPLLSARTRARRPESKATNATLDPR (cysteines drawn unpaired) [parstatin (1-41)] |  |  | tolerability (slit lamp: irritation, inflammation, ocular toxicity; systemic toxicity) [2]: well tolerated; tolerability in newborn mice [3]: not well tolerated; inotropic or chronotropic effects before ischemia (isolated rat hearts; 1 μM): did not have inotropic or chronotropic effects; baseline hemodynamics (heart rate, blood pressures) between groups ([4]; rat, in vivo): no significant differences |
| C=C1[C@@H]2CC[C@H]3[C@]4(C)C[C@H](O[C@@H]5O[C@H](CO)[C@@H](OS(=O)(=O)O)[C@H](OS(=O)(=O)O)[C@H]5OC(=O)CC(C)C)C[C@@H](C(=O)O)[C@H]4CC[C@]3(C2)[C@H]1O [Atractyloside, atractyloside, reference compound] | no effect |  |  |
| COC(=O)[C@@H](N)CCCNC(=N)N[N+](=O)[O-] [L-NMA, Nω-nitro-L-arginine methyl ester, reference compound] | without effect | no effect |  |
| O=c1onc2cnc3ccccc3n12 [ODQ, 1H-[1,2, 4]oxadiazolo-[4,3-a]quinoxalin-1-one, reference compound] | no effect | no effect |  |
| COc1ccc(Cl)cc1C(=O)NCCc1ccc(S(=O)(=O)NC(=O)NC2CCCCC2)cc1 [Glibenclamide, glibenclamide, reference compound] | no effect |  |  |
